Test results: ChEMBL document CHEMBL1201862, “PubChem BioAssay data set” (2004)
Counter-ions that a name gives are not always drawn.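 Method: 48-hour compound exposure of cells in 96-well plates, five concentrations, linear interpolation of endpoints. Abbreviation: GI50, concentration required for 50% inhibition of growth.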 Active and inactive are the calls of the source. No stated cut-off is given here; in the data, active = GI50 up to about 1.1 µM and inactive = higher. Starred links: 1 amine or outer side, 2 acyl side, 3 side chain; linkers in the order of their positions; H or OH if unused. Non-standard residues stand in square brackets, D forms with d. Residues, ends and D or L forms follow the SMILES beside them. ξ: configuration not given here. Ile(3ξ) = CCC(C)[C@H](N)C(=O)O; X35 = C=CCC(O[*:1])C(=O)[*:2]; NMeV = CN[C@H](C(=O)O)C(C)C; NMeA = CN[C@@H](C)C(=O)O; βAla = NCCC(=O)O

What was measured:
Assay in all cases: NCI anticancer screen, dose series, 48 h
786-0 = test system: 786-0
A498 = test system: A498
A549 = test system: A549
ACHN = test system: ACHN
CAKI-1 = test system: CAKI-1
CCRF-CEM = test system: CCRF-CEM
COLO 205 = test system: COLO 205
DLD-1 = test system: DLD-1
DMS-114 = test system: DMS-114
EKVX = test system: EKVX
HCC 2998 = test system: HCC 2998
HCT-116 = test system: HCT-116
HCT-15 = test system: HCT-15
HL-60 = test system: HL-60
HOP-18 = test system: HOP-18
HOP-62 = test system: HOP-62
HOP-92 = test system: HOP-92
HT-29 = test system: HT-29
IGROV-1 = test system: IGROV-1
K562 = test system: K562
KM-20L2 = test system: KM-20L2
KM12 = test system: KM12
LOX IMVI = test system: LOX IMVI
LXFL 529 = test system: LXFL 529
M14 = test system: M14
M19-MEL = test system: M19-MEL
MOLT-4 = test system: MOLT-4
Malme-3M = test system: Malme-3M
NCI-H226 = test system: NCI-H226
NCI-H23 = test system: NCI-H23
NCI-H460 = test system: NCI-H460
OVCAR-3 = test system: OVCAR-3
OVCAR-4 = test system: OVCAR-4
OVCAR-5 = test system: OVCAR-5
OVCAR-8 = test system: OVCAR-8
RPMI-8226 = test system: RPMI-8226
RXF 393 = test system: RXF 393
RXF 631 = test system: RXF 631
SF-268 = test system: SF-268
SF-295 = test system: SF-295
SF-539 = test system: SF-539
SK-MEL-28 = test system: SK-MEL-28
SK-MEL-2 = test system: SK-MEL-2
SK-MEL-5 = test system: SK-MEL-5
SK-OV-3 = test system: SK-OV-3
SN12C = test system: SN12C
SNB-19 = test system: SNB-19
SNB-75 = test system: SNB-75
SNB-78 = test system: SNB-78
SW-620 = test system: SW-620
TK-10 = test system: TK-10
UACC-257 = test system: UACC-257
UACC-62 = test system: UACC-62
UO-31 = test system: UO-31
XF498 = test system: XF498
DMS-273 = test system: DMS-273
SR = test system: SR
U-251 = test system: U-251
NCI-H522 = test system: NCI-H522

For `CC1=NCCc2c1[nH]c1cc(O)ccc21` [HARMALOL HYDROCHLORIDE], the GI50 (786-0) was > 100 µM (inactive), the GI50 (A498) was > 100 µM (inactive) and the GI50 (A549) was > 100 µM (inactive). The GI50 (ACHN) was > 100 µM (inactive), the GI50 (CAKI-1) was > 100 µM (inactive) and the GI50 (CCRF-CEM) was > 100 µM (inactive). For the same compound, the GI50 (COLO 205) was > 100 µM (inactive), the GI50 (DLD-1) was > 100 µM (inactive) and the GI50 (DMS-114) was > 100 µM (inactive). For the same compound, the GI50 (EKVX) was > 100 µM (inactive), the GI50 (HCC 2998) was > 100 µM (inactive) and the GI50 (HCT-116) was > 100 µM (inactive). The GI50 (HCT-15) was > 100 µM, the GI50 (HL-60) was > 100 µM (inactive) and the GI50 (HOP-18) was > 100 µM (inactive). The GI50 (HOP-62) was > 100 µM (inactive), the GI50 (HOP-92) was > 100 µM (inactive) and the GI50 (HT-29) was > 100 µM (inactive). For the same compound, the GI50 (IGROV-1) was > 100 µM (inactive), the GI50 (K562) was > 100 µM (inactive) and the GI50 (KM-20L2) was > 100 µM (inactive). The GI50 (KM12) was > 100 µM (inactive), the GI50 (LOX IMVI) was > 100 µM (inactive) and the GI50 (LXFL 529) was > 100 µM (inactive). For the same compound, the GI50 (M14) was > 100 µM (inactive), the GI50 (M19-MEL) was > 100 µM (inactive) and the GI50 (MOLT-4) was > 100 µM (inactive). The GI50 (Malme-3M) was > 100 µM (inactive), the GI50 (NCI-H226) was > 100 µM (inactive) and the GI50 (NCI-H23) was > 100 µM (inactive). For the same compound, the GI50 (NCI-H460) was > 100 µM (inactive), the GI50 (OVCAR-3) was > 100 µM (inactive) and the GI50 (OVCAR-4) was > 100 µM (inactive). For the same compound, the GI50 (OVCAR-5) was > 100 µM (inactive), the GI50 (OVCAR-8) was > 100 µM (inactive) and the GI50 (RPMI-8226) was > 100 µM (inactive). For the same compound, the GI50 (RXF 393) was > 100 µM (inactive), the GI50 (RXF 631) was > 100 µM (inactive) and the GI50 (SF-268) was > 100 µM (inactive). For the same compound, the GI50 (SF-295) was > 100 µM (inactive), the GI50 (SF-539) was > 100 µM (inactive) and the GI50 (SK-MEL-28) was > 100 µM (inactive). For the same compound, the GI50 (SK-MEL-2) was > 100 µM (inactive), the GI50 (SK-MEL-5) was > 100 µM (inactive) and the GI50 (SK-OV-3) was > 100 µM (inactive). For the same compound, the GI50 (SN12C) was > 100 µM (inactive), the GI50 (SNB-19) was > 100 µM (inactive) and the GI50 (SNB-75) was > 100 µM (inactive). The GI50 (SNB-78) was > 100 µM (inactive), the GI50 (SW-620) was > 100 µM (inactive) and the GI50 (TK-10) was > 100 µM (inactive). For the same compound, the GI50 (UACC-257) was > 100 µM (inactive), the GI50 (UACC-62) was > 100 µM (inactive) and the GI50 (UO-31) was > 100 µM (inactive). For the same compound, the GI50 (XF498) was > 100 µM (inactive).
`C=CCC1OC(=O)CCNC(=O)[C@H](C)N(C)C(=O)[C@H](C(C)C)N(C)C(=O)[C@H](C(C)CC)NC(=O)[C@@H]2CCCN2C1=O` (stereo not given in full) (cyclo([Ile(3ξ)][NMeV][NMeA][βAla][X35]P)) was tested, and the GI50 (786-0) was 5.58 µM (inactive), the GI50 (A498) was > 71.6 µM (inactive) and the GI50 (A549) was 9.08 µM (inactive). For the same compound, the GI50 (ACHN) was 27.9 µM (inactive), the GI50 (CAKI-1) was 8.93 µM (inactive) and the GI50 (CCRF-CEM) was 3.62 µM (inactive). The GI50 (COLO 205) was 5.14 µM (inactive), the GI50 (DLD-1) was 10.4 µM (inactive) and the GI50 (DMS-114) was 7.5 µM (inactive). The GI50 (DMS-273) was 3.63 µM (inactive), the GI50 (EKVX) was > 100 µM (inactive) and the GI50 (HCC 2998) was 5.31 µM (inactive). For the same compound, the GI50 (HCT-116) was 3.94 µM (inactive), the GI50 (HCT-15) was 23 µM and the GI50 (HL-60) was 3.39 µM (inactive). The GI50 (HOP-62) was 4.09 µM (inactive), the GI50 (HOP-92) was 8.93 µM (inactive) and the GI50 (HT-29) was 2.99 µM (inactive). For the same compound, the GI50 (IGROV-1) was 33.6 µM (inactive), the GI50 (K562) was 5 µM (inactive) and the GI50 (KM-20L2) was 3.18 µM (inactive). For the same compound, the GI50 (KM12) was 8.43 µM (inactive), the GI50 (LOX IMVI) was 9.16 µM (inactive) and the GI50 (LXFL 529) was 3.94 µM (inactive). For the same compound, the GI50 (M14) was 2.61 µM (inactive), the GI50 (M19-MEL) was 5.96 µM (inactive) and the GI50 (MOLT-4) was 3.57 µM (inactive). For the same compound, the GI50 (Malme-3M) was 3.28 µM (inactive), the GI50 (NCI-H226) was 7.55 µM (inactive) and the GI50 (NCI-H23) was 26.7 µM (inactive). The GI50 (NCI-H460) was 4.94 µM (inactive), the GI50 (OVCAR-3) was 13.3 µM (inactive) and the GI50 (OVCAR-4) was 6.75 µM (inactive). The GI50 (OVCAR-5) was 13.6 µM (inactive), the GI50 (OVCAR-8) was 16.2 µM (inactive) and the GI50 (RPMI-8226) was 4.91 µM (inactive). For the same compound, the GI50 (RXF 393) was > 100 µM (inactive), the GI50 (RXF 631) was 4.92 µM (inactive) and the GI50 (SF-268) was 4.12 µM (inactive). For the same compound, the GI50 (SF-295) was 4.41 µM (inactive), the GI50 (SF-539) was 10.1 µM (inactive) and the GI50 (SK-MEL-28) was 33.8 µM (inactive). For the same compound, the GI50 (SK-MEL-2) was 3.13 µM (inactive), the GI50 (SK-MEL-5) was 2.97 µM (inactive) and the GI50 (SK-OV-3) was 99.1 µM (inactive). The GI50 (SN12C) was 11.5 µM (inactive), the GI50 (SNB-19) was > 39.4 µM (inactive) and the GI50 (SNB-75) was > 21.1 µM (inactive). For the same compound, the GI50 (SNB-78) was > 100 µM (inactive), the GI50 (SR) was 4.95 µM (inactive) and the GI50 (SW-620) was 5.07 µM (inactive). For the same compound, the GI50 (TK-10) was > 38.3 µM (inactive), the GI50 (U-251) was > 53 µM (inactive) and the GI50 (UACC-257) was 4.71 µM (inactive). The GI50 (UACC-62) was 4.08 µM (inactive), the GI50 (UO-31) was 33 µM (inactive) and the GI50 (XF498) was 3.65 µM (inactive).
For `N#CCCN(c1ccc(/C=N/c2cccc([N+](=O)[O-])c2)cc1)S(=O)(=O)c1ccccc1`, the GI50 (786-0) was > 100 µM (inactive), the GI50 (A498) was > 10 µM (inactive) and the GI50 (A549) was > 100 µM (inactive). For the same compound, the GI50 (CAKI-1) was > 100 µM (inactive), the GI50 (CCRF-CEM) was > 100 µM (inactive) and the GI50 (COLO 205) was > 100 µM (inactive). For the same compound, the GI50 (DLD-1) was > 100 µM (inactive), the GI50 (DMS-114) was > 100 µM (inactive) and the GI50 (DMS-273) was > 100 µM (inactive). The GI50 (EKVX) was > 100 µM (inactive), the GI50 (HCC 2998) was > 100 µM (inactive) and the GI50 (HCT-116) was > 100 µM (inactive). For the same compound, the GI50 (HL-60) was > 100 µM (inactive), the GI50 (HOP-62) was > 100 µM (inactive) and the GI50 (HOP-92) was > 100 µM (inactive). For the same compound, the GI50 (HT-29) was > 100 µM (inactive), the GI50 (IGROV-1) was > 100 µM (inactive) and the GI50 (K562) was > 100 µM (inactive). For the same compound, the GI50 (KM12) was > 100 µM (inactive), the GI50 (LXFL 529) was > 100 µM (inactive) and the GI50 (M14) was > 100 µM (inactive). For the same compound, the GI50 (MOLT-4) was > 100 µM (inactive), the GI50 (Malme-3M) was > 100 µM (inactive) and the GI50 (NCI-H226) was 56.9 µM (inactive). For the same compound, the GI50 (NCI-H23) was > 100 µM (inactive), the GI50 (NCI-H522) was > 100 µM (inactive) and the GI50 (OVCAR-3) was > 100 µM (inactive). For the same compound, the GI50 (OVCAR-4) was > 100 µM (inactive), the GI50 (OVCAR-8) was > 100 µM (inactive) and the GI50 (RPMI-8226) was > 100 µM (inactive). The GI50 (RXF 631) was > 100 µM (inactive), the GI50 (SF-268) was > 100 µM (inactive) and the GI50 (SF-295) was > 100 µM (inactive). The GI50 (SF-539) was > 100 µM (inactive), the GI50 (SK-MEL-28) was > 100 µM (inactive) and the GI50 (SK-MEL-2) was > 100 µM (inactive). The GI50 (SK-OV-3) was > 100 µM (inactive), the GI50 (SN12C) was > 100 µM (inactive) and the GI50 (SNB-19) was > 100 µM (inactive). For the same compound, the GI50 (SNB-75) was 75.2 µM (inactive), the GI50 (SNB-78) was > 100 µM (inactive) and the GI50 (SR) was > 100 µM (inactive). The GI50 (SW-620) was > 100 µM (inactive), the GI50 (TK-10) was > 100 µM (inactive) and the GI50 (UACC-257) was > 100 µM (inactive). For the same compound, the GI50 (UACC-62) was > 100 µM (inactive), the GI50 (UO-31) was 36.3 µM (inactive) and the GI50 (XF498) was > 100 µM (inactive).
